# Tests used:
# [1] = Stability studies on free base Compound 1 and amorphous diHCl salt; format: physicochemical
# Procedure: Stability studies were performed on the free base Compound 1 and an amorphous diHCl salt of Compound 1. This salt was formed by dissolving the compound in aqueous solution, adjusting the pH of the solution to approximately 4.2, followed by lyophilization. The free base degraded in less than one month at 40° C., and approximately three months at 4° C. In contrast, the diHCl salt of Compound 1 was stable for 6 months at 40° C., and for two years at room temperature (25° C.).
# [2] = Solid phase stability of amorphous Compound 1; format: physicochemical; conditions: temperatures higher than 0° C. and when exposed to air
# Excerpt: Tetracycline-type antibiotic compounds have long been known to have limited stability in the solid phase freebase form. One such non-crystalline tetracycline analog compound, (4S,4AS,5AR,12AS)-4-7-Bis(dimethylamino)-9-{[(2,2-dimethylpropyl)amino]methyl}-3,10,12,12A-tetrahydroxy-1,1′-dioxo-1,4,4A,5,5A,6,11,12A-octahydrotetracene-2-carboxamide (Compound 1; MW=556.66, MF=C29H40N4O7), has limited stability in the solid phase upon exposure to air, light and/or moisture.
# Specifically, Compound 1 is a yellow amorphous solid that is unstable at temperatures higher than 0° C. and when exposed to air. Compound 1 must be stored at temperatures below 0° C. with limited exposure in the solid phase to air, light and moisture. Outside of these limited exposure conditions, Compound 1 degrades to produce degradation products including air degradation products 2, 3 and 4, as well as the 4-epi-isomer 5.
compound,measurement,setting,value
"CN(C)c1cc(CNCC(C)(C)C)c(O)c2c1C[C@H]1C[C@H]3[C@H](N(C)C)C(O)=C(C(N)=O)C(=O)[C@@]3(O)C(O)=C1C2=O [Compound 1, (4S,4AS,5AR,12AS)-4-7-Bis(dimethylamino)-9{[(2,2-dimethylpropyl)amino]methyl}-3,10,12,12A-tetrahydroxy-1,1′-dioxo-1,4,4A,5,5A,6,11,12A-octahydrotetracene-2-carboxamide]",time in which the substance degraded,[1]; 4° C.,approximately three
same,time in which the substance degraded,[1]; 40° C.,less than one
same,solid phase stability,[2],unstable

# Source: patent US9227921B2, “Salts and polymorphs of a tetracycline compound” (Paratek Pharmaceuticals, Inc., priority 2008, dated 2016)
